Reference: PMC9866191, “Novel 9-Benzylaminoacridine Derivatives as Dual Inhibitors of Phosphodiesterase 5 and Topoisomerase II for the Treatment of Colon Cancer” (Molecules, 2023)

Tests used:
Experiment in all cases: NCI-60 one-dose screen
Assay type in all cases: cell-based
HT29 = details: Homo sapiens, HT-29; HT29, Colon Cancer panel; single dose 10^−5 M; read-out: Growth inhibition %
BT-549 = details: Homo sapiens; BT-549, Breast Cancer panel; single dose 10^−5 M; read-out: Growth inhibition %
M14 = details: Homo sapiens; M14, Melanoma panel; single dose 10^−5 M; read-out: Growth inhibition %
HCC-2998 = details: Homo sapiens; HCC-2998, Colon Cancer panel; single dose 10^−5 M; read-out: Growth inhibition %
U251 = details: Homo sapiens, U-251; U251, CNS Cancer panel; single dose 10^−5 M; read-out: Growth inhibition %
A498 = details: Homo sapiens; A498, Renal Cancer panel; single dose 10^−5 M; read-out: Growth inhibition %
EKVX = details: Homo sapiens, Non-small cell lung panel, single dose 10^−5 M, read-out: Growth inhibition %
T-47D = details: Homo sapiens, T47D, Breast Cancer panel, single dose 10^−5 M, read-out: Growth inhibition %
COLO 205 = details: Homo sapiens; COLO 205, Colon Cancer panel; single dose 10^−5 M; read-out: Growth inhibition %
K-562 = details: Homo sapiens, K562; K-562, Leukemia panel; single dose 10^−5 M; read-out: Growth inhibition %
TK-10 = details: Homo sapiens; TK-10, Renal Cancer panel; single dose 10^−5 M; read-out: Growth inhibition %
SK-OV-3 = details: Homo sapiens; SK-OV-3, Ovarian Cancer panel; single dose 10^−5 M; read-out: Growth inhibition %
MALME-3M = details: Homo sapiens, Melanoma panel, single dose 10^−5 M, read-out: Growth inhibition %
KM12 = details: Homo sapiens; KM12, Colon Cancer panel; single dose 10^−5 M; read-out: Growth inhibition %
UACC-62 = details: Homo sapiens; UACC-62, Melanoma panel; single dose 10^−5 M; read-out: Growth inhibition %
SF-295 = details: Homo sapiens; SF-295, CNS Cancer panel; single dose 10^−5 M; read-out: Growth inhibition %
SK-MEL-2 = details: Homo sapiens; SK-MEL-2, Melanoma panel; single dose 10^−5 M; read-out: Growth inhibition %
SR = details: Homo sapiens, Leukemia panel, single dose 10^−5 M, read-out: Growth inhibition %
OVCAR-8 = details: Homo sapiens; OVCAR-8, Ovarian Cancer panel; single dose 10^−5 M; read-out: Growth inhibition %
SW-620 = details: Homo sapiens; SW-620, Colon Cancer panel; single dose 10^−5 M; read-out: Growth inhibition %
PC-3 = details: Homo sapiens; PC-3, Prostate Cancer panel; single dose 10^−5 M; read-out: Growth inhibition %
SNB-19 = details: Homo sapiens; SNB-19, CNS Cancer panel; single dose 10^−5 M; read-out: Growth inhibition %
HCT-15 = details: Homo sapiens; HCT-15, Colon Cancer panel; single dose 10^−5 M; read-out: Growth inhibition %
RXF 393 = details: Homo sapiens; RXF 393, Renal Cancer panel; single dose 10^−5 M; read-out: Growth inhibition %
UACC-257 = details: Homo sapiens; UACC-257, Melanoma panel; single dose 10^−5 M; read-out: Growth inhibition %
RPMI-8226 = details: Homo sapiens; RPMI-8226, Leukemia panel; single dose 10^−5 M; read-out: Growth inhibition %
OVCAR-5 = details: Homo sapiens; OVCAR-5, Ovarian Cancer panel; single dose 10^−5 M; read-out: Growth inhibition %
SK-MEL-5 = details: Homo sapiens; SK-MEL-5, Melanoma panel; single dose 10^−5 M; read-out: Growth inhibition %
DU-145 = details: Homo sapiens; DU-145, Prostate Cancer panel; single dose 10^−5 M; read-out: Growth inhibition %
NCI-H226 = details: Homo sapiens; NCI-H226, Non-small cell lung panel; single dose 10^−5 M; read-out: Growth inhibition %
SF-539 = details: Homo sapiens; SF-539, CNS Cancer panel; single dose 10^−5 M; read-out: Growth inhibition %
CCRF-CEM = details: Homo sapiens, Leukemia panel, single dose 10^−5 M, read-out: Growth inhibition %

| Compound | inhibition at 10 µM (HT29) [%] | inhibition at 10 µM (BT-549) [%] | inhibition at 10 µM (M14) [%] | inhibition at 10 µM (HCC-2998) [%] | inhibition at 10 µM (U251) [%] | inhibition at 10 µM (A498) [%] | inhibition at 10 µM (EKVX) [%] | inhibition at 10 µM (T-47D) [%] | inhibition at 10 µM (COLO 205) [%] | inhibition at 10 µM (K-562) [%] | inhibition at 10 µM (TK-10) [%] | inhibition at 10 µM (SK-OV-3) [%] | inhibition at 10 µM (MALME-3M) [%] | inhibition at 10 µM (KM12) [%] | inhibition at 10 µM (UACC-62) [%] | inhibition at 10 µM (SF-295) [%] | inhibition at 10 µM (SK-MEL-2) [%] | inhibition at 10 µM (SR) [%] | inhibition at 10 µM (OVCAR-8) [%] | inhibition at 10 µM (SW-620) [%] | further results |
| --- | --- | --- | --- | --- | --- | --- | --- | --- | --- | --- | --- | --- | --- | --- | --- | --- | --- | --- | --- | --- | --- |
| COc1ccc(CNc2c3ccccc3nc3ccccc23)c(OC)c1 [Compound 17, Acridin-9-yl-(2,4-dimethoxybenzyl)-amine] | 86.2 | 33.3 | 56.2 | 64.4 | 58.2 | 111 | 48.9 | 47.1 | 75.4 | 86.8 | 45.6 | 36.7 | 33 | 45.7 | 45.5 | 63.7 | 5.98 | 81.9 | 62.2 | 79.3 | inhibition at 10 µM (PC-3): 52.9%; inhibition at 10 µM (SNB-19): 66.5%; inhibition at 10 µM (HCT-15): 74%; inhibition at 10 µM (RXF 393): 66.6%; inhibition at 10 µM (UACC-257): 25.4%; inhibition at 10 µM (RPMI-8226): 65.1%; inhibition at 10 µM (OVCAR-5): 49.7%; inhibition at 10 µM (SK-MEL-5): 29.6%; inhibition at 10 µM (DU-145): 50.6%; inhibition at 10 µM (NCI-H226): 53.7%; inhibition at 10 µM (SF-539): 85.4%; inhibition at 10 µM (CCRF-CEM): 44.6% |
| COc1ccc(CNc2c3ccccc3nc3ccccc23)cc1OC [Compound 18, Acridin-9-yl-(3,4-dimethoxybenzyl)-amine] | 95.6 | 57.9 | 82.3 | 69.9 | 76.8 | 112 | 84.8 | 74.2 | 94.7 | 91.2 | 67.7 | 58.9 | 92.1 | 68.4 | 73.2 | 81.9 | 61.4 | 91.4 | 76.2 | 84 | inhibition at 10 µM (PC-3): 78%; inhibition at 10 µM (SNB-19): 78.2%; inhibition at 10 µM (HCT-15): 89.8%; inhibition at 10 µM (RXF 393): 96.4%; inhibition at 10 µM (UACC-257): 77.9%; inhibition at 10 µM (RPMI-8226): 99.4%; inhibition at 10 µM (OVCAR-5): 72.5%; inhibition at 10 µM (SK-MEL-5): 82.5%; inhibition at 10 µM (DU-145): 75.3%; inhibition at 10 µM (NCI-H226): 72%; inhibition at 10 µM (SF-539): 84.7%; inhibition at 10 µM (CCRF-CEM): 69.5% |
| COc1ccc(CNc2c3ccccc3nc3ccccc23)cc1F [Compound 19, Acridin-9-yl-(3-fluoro-4-methoxybenzyl)-amine] | 87.8 | 50.5 | 80.1 | 94.2 | 73.1 | 106 | 73.9 | 65 | 91.3 | 95.2 | 63.9 | 52 | 76.4 | 67.2 | 57.5 | 79.9 | 54.9 | 95.2 | 70.6 | 83.4 | inhibition at 10 µM (PC-3): 69.5%; inhibition at 10 µM (SNB-19): 72%; inhibition at 10 µM (HCT-15): 89%; inhibition at 10 µM (RXF 393): 88.9%; inhibition at 10 µM (UACC-257): 62.2%; inhibition at 10 µM (RPMI-8226): 106%; inhibition at 10 µM (OVCAR-5): 63.1%; inhibition at 10 µM (SK-MEL-5): 63.5%; inhibition at 10 µM (DU-145): 72.8%; inhibition at 10 µM (NCI-H226): 57%; inhibition at 10 µM (SF-539): 81.8%; inhibition at 10 µM (CCRF-CEM): 70.4% |
| Fc1cccc(CNc2c3ccccc3nc3ccccc23)c1F [Compound 20, Acridin-9-yl-(2,3-difluorobenzyl)-amine] | 70.9 | 9.44 | 29.4 | 41.6 | 34.5 | 101 | 37.1 | 31.7 | 59.1 | 56.6 | 10.8 | 24.1 | 5.87 | 13.1 | 24.3 | 46.2 | -6.76 | 61.8 | 49.2 | 58.6 | inhibition at 10 µM (PC-3): 42.9%; inhibition at 10 µM (SNB-19): 41.5%; inhibition at 10 µM (HCT-15): 60.5%; inhibition at 10 µM (RXF 393): 40.5%; inhibition at 10 µM (UACC-257): 7.14%; inhibition at 10 µM (RPMI-8226): 47.1%; inhibition at 10 µM (OVCAR-5): 26.8%; inhibition at 10 µM (SK-MEL-5): 17%; inhibition at 10 µM (DU-145): 23.3%; inhibition at 10 µM (NCI-H226): 27.1%; inhibition at 10 µM (SF-539): 44.5%; inhibition at 10 µM (CCRF-CEM): 37.6% |
| Fc1ccc(CNc2c3ccccc3nc3ccccc23)c(F)c1 [Compound 21, Acridin-9-yl-(2,4-difluorobenzyl)-amine] | 78.2 | 17.2 | 44.7 | 58.7 | 55.9 | 104 | 54.5 | 52.6 | 73.2 | 77.5 | 39 | 40.2 | 30.5 | 40 | 40.9 | 59.6 | 0.35 | 74.8 | 59.8 | 70.2 | inhibition at 10 µM (PC-3): 31.1%; inhibition at 10 µM (SNB-19): 58.5%; inhibition at 10 µM (HCT-15): 71.3%; inhibition at 10 µM (RXF 393): 65.5%; inhibition at 10 µM (UACC-257): 31.1%; inhibition at 10 µM (RPMI-8226): 71.7%; inhibition at 10 µM (OVCAR-5): 48.3%; inhibition at 10 µM (SK-MEL-5): 30.6%; inhibition at 10 µM (DU-145): 49.1%; inhibition at 10 µM (NCI-H226): 45.2%; inhibition at 10 µM (SF-539): 67.6%; inhibition at 10 µM (CCRF-CEM): 46.1% |
